Each structure is given as a SMILES string.

The target in the experiment is USP14 (Homo sapiens (Human), UniProt P54578). The experiment is described as follows: USP14 Inhibition Assay. It counts as biochemical. The settings on record: average value from a minimum of two experimental determinations, read-out: IC50 Category. How it is done: Example 17: USP14 Inhibition Assay
“I” in the Table below designates an IC50 of >5 μM, “II” in the Table below designates and IC50 between 0.5 and 5 μM, and “III” designates an IC50<0.5 μM. The IC50 values in the Table below represent the average value from a minimum of two experimental determinations.

Chain of USP14 (P54578 whole entry, looked up): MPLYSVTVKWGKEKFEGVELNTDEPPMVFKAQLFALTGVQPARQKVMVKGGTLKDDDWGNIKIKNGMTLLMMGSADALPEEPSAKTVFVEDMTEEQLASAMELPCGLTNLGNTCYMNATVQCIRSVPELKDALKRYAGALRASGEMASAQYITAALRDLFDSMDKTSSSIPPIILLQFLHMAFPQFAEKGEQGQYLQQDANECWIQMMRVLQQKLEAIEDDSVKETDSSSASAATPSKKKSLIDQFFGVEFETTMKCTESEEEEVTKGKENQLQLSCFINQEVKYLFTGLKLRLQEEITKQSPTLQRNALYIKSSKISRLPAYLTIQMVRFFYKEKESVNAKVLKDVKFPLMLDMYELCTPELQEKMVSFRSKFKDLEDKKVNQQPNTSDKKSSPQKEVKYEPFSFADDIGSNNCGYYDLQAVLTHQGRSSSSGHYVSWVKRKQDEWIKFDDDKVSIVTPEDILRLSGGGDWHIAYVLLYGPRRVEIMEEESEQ

On to `Cc1c(C(=O)CN2CCC(CNCC(=O)O)CC2)c2ncc(Br)cc2n1-c1ccc(Cl)cc1` [Compound 386], for which the 50% inhibitory concentration (IC50) (in general, the point on the concentration scale where inhibition reaches its midpoint) was > 5 µM.
For `CCCC(=O)CCc1cnc2c(C(=O)CN3CCCCC3)c(C)n(-c3ccc(Cl)cc3)c2c1` [Compound 387], the IC50 was < 0.5 µM.
As to `Cc1c(C(=O)CN2CCC(O)CC2)c2ncccc2n1-c1ccc(Cl)cc1` [Compound 388], the IC50 was < 0.5 µM.
Take `Cc1c(C(=O)CN2CCC(O)CC2)c2ccccc2n1-c1ccc(F)cc1` [Compound 389]: the IC50 was < 0.5 µM.
In the case of `Cc1c(C(=O)CN2CCC(O)(C(F)(F)F)CC2)c2ccccc2n1-c1ccc(Cl)cc1` [Compound 390], the IC50 is > 5 µM.
Then `Cc1c(C(=O)CN2CCC(O)CC2)c2ccccc2n1-c1ccc(F)c(F)c1` [Compound 391], with 0.5 to 5 µM; and `Cc1c(C(=O)CN2CCC(O)CC2)c2ccccc2n1-c1ccc(Cl)nc1` [Compound 392], with 0.5 to 5 µM; and `Cc1c(C(=O)CN2CCC(O)CC2)c2ccccc2n1-c1ccc(C#N)nc1` [Compound 393], with 0.5 to 5 µM.
`Cc1c(C(=O)CN2CCC(O)CC2)c2ccc(F)cc2n1-c1ccc(Cl)cc1` [Compound 394]: the IC50 is > 5 µM.
Consider `Cc1c(C(=O)CN2CCC(O)CC2)c2ccccc2n1-c1cccnc1` [Compound 395], for which the IC50 was > 5 µM.
With `Cc1c(C(=O)CN2CCC(O)CC2)c2ccccc2n1-c1ccncc1` [Compound 396], the half-maximal inhibitory concentration (IC50) is > 5 µM.
For the molecule `Cc1c(C(=O)CN2CCC(O)CC2)c2ccccc2n1-c1ccccn1` [Compound 397], the concentration for half-maximal inhibition (IC50) was > 5 µM.
Regarding `Cc1c(C(=O)CN2CCC(O)CC2)c2ccccc2n1-c1ccc(Cl)cn1` [Compound 398], the IC50 fell in the range of 0.5 to 5 µM.
For `O=C(CN1CCCCC1)c1c(C2CC2)n(-c2ccc(Cl)cc2)c2ccccc12` [Compound 399], the half-maximal inhibitory concentration (IC50) was > 5 µM.
Turning to `Cc1c(C(=O)CN2CCC(O)CC2)c2ccccc2n1-c1ncc(Cl)cn1` [Compound 400], the 50% inhibitory concentration (IC50) was > 5 µM.
Then `CCc1c(C(=O)CN2CCCCC2)c2ccccc2n1-c1ccc(Cl)cc1` [Compound 401], with 0.5 to 5 µM.
As for `Cc1c(C(=O)CN2CCC(O)CC2)c2ccccc2n1-c1ncc(Cl)s1` [Compound 402], the half-maximal inhibitory concentration (IC50) was > 5 µM.

These data come from patent US11242361B2 (Proteostasis Therapeutics, Inc., priority 2013, dated 2022).
